The values that follow come from patent publication US4415566A, “Cephalosporin derivatives” (Boehringer Ingelheim GmbH, priority 1979, dated 1983).

Assay [1] relates to Klebsiella pneumoniae 272. Kind of assay: Serial dilution test in the microtiter system (MIC), Klebs. pneum. 272. The assay is classed as cell-based. How it is done: (§1) These tests were performed according to the method of the serial dilution test in the microtiter system. The effect of the substances on bacteriostasis was examined in a fluid medium. […] A nutrient medium of the following composition was used. 10 gm of peptone, 8 gm of meat extract-oxoid, 3 gm of sodium chloride, 2 gm of sec. sodium phosphate were diluted with distilled water to […] (pH 7.2-7.4). Only in the test against streptococci 1% of glucose was added. The age of the primary cultures was about 20 hours. The standardization of the pathogen suspension was effected by using a photometer according to "Eppendorf" (test tube dismeter 14 mm, filter 546 nm) with the aid of the turbidity of a comparison suspension consisting of barium sulfate, this suspension being prepared by addition of 3.0 ml of 1% barium chloride solution to 97 ml of 1% sulfuric acid. After the standardization, streptococcus aronson were further diluted to a concentration of 1:15 and the other microorganisms to a concentration of 1:1500 by means of a sodium chloride solution.
(§2) 16 mg of the test substance were put into a 10 ml-measuring flask and filled up to the mark with the solvent. The further dilution series was standardized with distilled water or the respective solvent.
(§3) The cavities of the microtiter plates were filled with 0.2 ml of nutrient medium. Then, 0.01 ml of the corresponding test substance dilution was added and inoculated with 0.01 ml of the standardized suspension. The bacteria were incubated at 37° C. for 18-20 hours. Control tests merely using the solvent were carried out simultaneously.
(§4) The measurement was carried out macroscopically to determine the minimal inhibitory (threshold) concentration, i.e. the lower still bacteriostatically effective concentration.
(§5) Staphylococcus aureus SG 511, Escherichia coli ATCC 11 775, Pseudomonas aeruginosa Hamburgensis and Pseudomonas aeruginosa Walter, Serratia marcescens ATCC 13880, Klebsiella pneumoniae ATCC 10 031 and 272, Proteus mirabilis Hamburgensis, Proteus rettgeri, Enterbacter cloaceae ATCC 13 047 and E. Coli R+TEM (β-lactamase carrier).

Assay [2] concerns Staphylococcus aureus SG 511. As to the kind of experiment: Serial dilution test in the microtiter system (MIC), S. aureus SG 511. The assay is classed as cell-based. How it is done: as §1, §2, §3, §4, §5
Assay [3] relates to Psuedomonas aeruginosa Walter. As to the kind of experiment: In vivo activity in mice, Pseudomonas infection. The arrangement: species or system Female NMRI mice. The settings on record: for ED50: Mus musculus, iPSC, sc, 168 h, Pseudomonas infection i.p., s.c. administration, per dose, observation 7 days, read-out: ED50 (dose at which 50% of the animals survived). As to the method:
(§6) A number of compounds of this invention were tested in vivo in mice against experimental infections. Bacteria E. coli ATCC 11775 and Psuedomonas aeruginosa Walter were used as pathogens. An intraperitoneal infection with 0.2 ml of a 5% suspension of the bacteria was induced. This corresponds to about 2×10^6 E. Coli germs and 8×10^5 pseudomonas germs/mouse. […] The groups with E. coli infection were treated with the test compound three times on the first day (1, 4, and 7 hours post infectionem) and for two days thereafter twice a day. The groups with the pseudomonas infection were treated with the test compound 6 times on the first day (1, 3, 6, 9, 12 and 15 hours post infectionem) and for two days thereafter twice a day. The observation time was in both cases 7 days. The results of these tests with representatives of the penicillins and cephalosporins according to the invention are shown in the following table: […]

The subject of assay [4] is Serratia marcescens ATCC 13880. Kind of assay: Serial dilution test in the microtiter system (MIC), Serrat. marcesc. ATCC 13880. It is filed as cell-based. As to the method: as §1, §2, §3, §4, §5
Assay [5] has as its system Enterbacter cloaceae ATCC 13 047. As to the kind of experiment: Serial dilution test in the microtiter system (MIC), Eb. cloaceae ATCC 13047. The assay is classed as cell-based. As to the method:
as §1, §2, §3, §4, §5

The subject of assay [6] is Klebsiella pneumoniae ATCC 10 031. As to the kind of experiment: Serial dilution test in the microtiter system (MIC), Klebs. pneum. ATCC 10031. The assay is classed as cell-based. How it is done: as §1, §2, §3, §4, §5
Assay [7] has as its system Proteus rettgeri. Kind of assay: Serial dilution test in the microtiter system (MIC), Prot. rettgeri. It is filed as cell-based. Particulars: Providencia rettgeri; Table IV; Prot. rettg.; 37° C., 18-20 hours; read-out: MIC. How it is done: as §1, §2, §3, §4, §5
Assay [8] relates to E. coli ATCC 11775. Kind of assay: In vivo activity in mice, E. coli infection. More on the design: species or system Female NMRI mice. The settings on record: Escherichia coli, ATCC11775, iPSC, sc, 168 h; E. coli infection i.p.; s.c. administration; per dose; observation 7 days; read-out: ED50 (dose at which 50% of the animals survived). How it is done:
as §6

Assay [9] has as its system Pseudomonas aeruginosa Hamburgensis. Kind of assay: Serial dilution test in the microtiter system (MIC), Pseud. aerug. Hbg. It is filed as cell-based. As to the method: as §1, §2, §3, §4, §5
Assay [10] deals with Proteus mirabilis Hamburgensis. As to the kind of experiment: Serial dilution test in the microtiter system (MIC), Prot. mirabilis. The assay is classed as cell-based. How it is done: as §1, §2, §3, §4, §5
Assay [11] relates to Pseudomonas aeruginosa Walter. Kind of assay: Serial dilution test in the microtiter system (MIC), Pseud. aerug. Walter. It is filed as cell-based. How it is done:
as §1, §2, §3, §4, §5

The subject of assay [12] is Escherichia coli ATCC 11 775. As to the kind of experiment: Serial dilution test in the microtiter system (MIC), E. Coli ATCC 11775. The assay is classed as cell-based. How it is done:
as §1, §2, §3, §4, §5

[13] abbreviates: Table IV, Klebs. pneum. 272, 37° C., 18-20 hours, read-out: MIC.
[14] abbreviates: SG511, Table IV, S. aureus SG 511, 37° C., 18-20 hours, read-out: MIC.
Setting [15] is: ATCC13880, Table IV, Serr. marcesc. ATCC 13880, 37° C., 18-20 hours, read-out: MIC.
The mark [16] stands for this setting: Table IV, Eb. cloaceae, 37° C., 18-20 hours, read-out: MIC.
Setting [17] is: Table IV, Prot. mir. Hbg., 37° C., 18-20 hours, read-out: MIC.
[18] abbreviates: Table IV, Klebs. pneum. ATCC 10031, 37° C., 18-20 hours, read-out: MIC.
Setting [19] is: Table IV, E. Coli ATCC 11775, 37° C., 18-20 hours, read-out: MIC.

Converted amounts (≈) assume the structure as drawn. Where two headings read alike, the source gives them in different places.

Take `Cn1nnnc1SCC1=C(C(=O)O)N2C(=O)[C@@H](NC(=O)[C@H](NC(=O)Nc3cnc(NCc4cccnc4)nc3O)c3ccc(O)cc3)[C@H]2SC1` [L]: the MIC in [1] (setting [13]) is 0.25 µg/mL (≈ 0.347 µM); in [2] (setting [14]) it was 0.5 µg/mL (≈ 0.694 µM); in assay [4] (setting [15]), 0.25 µg/mL (≈ 0.347 µM); in assay [5] (setting [16]), 0.25 µg/mL (≈ 0.347 µM); in [6], 0.25 µg/mL (≈ 0.347 µM); in [7], 0.5 µg/mL (≈ 0.694 µM). For the same molecule, the ED50 in assay [3] was 4.6 mg/kg; in assay [8] it was 0.2 mg/kg.

On to `CC(=O)OCC1=C(C(=O)O)N2C(=O)[C@@H](NC(=O)[C@H](NC(=O)Nc3cnc(NCc4ccco4)nc3O)c3ccc(O)cc3)[C@H]2SC1` [K], for which the MIC in assay [1] (setting [13]) was found to be 1 µg/mL (≈ 1.53 µM); in [2] (SG511), 1 µg/mL (≈ 1.53 µM); in [9] (Table IV, Pseud. aerug. Hbg., 37° C., 18-20 hours, read-out: MIC), 16 µg/mL (≈ 24.5 µM); in assay [4] (ATCC13880), 2 µg/mL (≈ 3.06 µM); in assay [5], 4 µg/mL (≈ 6.12 µM); in assay [10] (setting [17]) it was 0.25 µg/mL (≈ 0.382 µM). The MIC in assay [11] is 8 µg/mL (≈ 12.2 µM); in assay [6] (setting [18]), 1 µg/mL (≈ 1.53 µM); in assay [7], 1 µg/mL (≈ 1.53 µM); in assay [12] (setting [19]), 0.5 µg/mL (≈ 0.765 µM).

As for `Cn1nnnc1SCC1=C(C(=O)O)N2C(=O)[C@@H](NC(=O)[C@H](NC(=O)Nc3cnc(Nc4ccc([S+](C)[O-])nc4)nc3O)c3ccc(O)cc3)[C@H]2SC1` (some centres unmarked) [O], the MIC in assay [1] (setting [13]) came to 0.25 µg/mL (≈ 0.325 µM); in assay [2] (setting [14]) it was 0.25 µg/mL (≈ 0.325 µM); in assay [9], 4 µg/mL (≈ 5.2 µM); in assay [4] (setting [15]) it was 0.5 µg/mL (≈ 0.65 µM); in assay [5] (setting [16]), 0.5 µg/mL (≈ 0.65 µM); in assay [10] (setting [17]) it was 0.12 µg/mL (≈ 0.156 µM). The minimal inhibitory concentration (MIC) in [11] worked out at 4 µg/mL (≈ 5.2 µM); in [6] (setting [18]) it was 0.25 µg/mL (≈ 0.325 µM); in [7] it was 0.5 µg/mL (≈ 0.65 µM); in assay [12] (setting [19]), 0.25 µg/mL (≈ 0.325 µM).

In the case of `Cc1nnc(SCC2=C(C(=O)O)N3C(=O)[C@@H](NC(=O)Cn4cnnn4)[C@H]3SC2)s1` [Cephazolin, reference compound], the MIC in [1] (272) was 2 µg/mL (≈ 4.4 µM); in assay [2] (setting [14]) it was 0.06 µg/mL (≈ 0.132 µM); in [10], 4 µg/mL (≈ 8.8 µM); in assay [6] (setting [18]), 1 µg/mL (≈ 2.2 µM); in assay [12], 4 µg/mL (≈ 8.8 µM).

`Cn1nnnc1SCC1=C(C(=O)O)N2C(=O)[C@@H](NC(=O)[C@H](NC(=O)Nc3cnc(NCc4cccs4)nc3O)c3ccc(O)cc3)[C@H]2SC1` [N]: the MIC in [1] (setting [13]) was determined as 0.25 µg/mL (≈ 0.344 µM); in [2] (setting [14]) it was 0.5 µg/mL (≈ 0.689 µM); in [9], 8 µg/mL (≈ 11 µM); in assay [4] (setting [15]), 0.25 µg/mL (≈ 0.344 µM); in assay [5] (setting [16]) it was 0.25 µg/mL (≈ 0.344 µM); in assay [10] (setting [17]), 0.12 µg/mL (≈ 0.165 µM). The MIC in [11] worked out at 4 µg/mL (≈ 5.51 µM); in [6] (setting [18]), 0.25 µg/mL (≈ 0.344 µM); in [7] it was 0.5 µg/mL (≈ 0.689 µM); in assay [12] (setting [19]) it was 0.25 µg/mL (≈ 0.344 µM). Moreover, in assay [8], the ED50 was found to be 0.6 mg/kg.

As for `CO/N=C(\C(=O)N[C@@H]1C(=O)N2C(C(=O)O)=C(COC(N)=O)CS[C@H]12)c1ccco1` [Cefuroxim, reference compound], the MIC in assay [1] (272) came out at 4 µg/mL (≈ 9.43 µM); in assay [2] (setting [14]) it was 1 µg/mL (≈ 2.36 µM); in assay [4] (setting [15]), 8 µg/mL (≈ 18.9 µM); in assay [5] (setting [16]), 32 µg/mL (≈ 75.4 µM); in assay [10] (setting [17]), 0.5 µg/mL (≈ 1.18 µM); in assay [6] (setting [18]) it was 2 µg/mL (≈ 4.71 µM). Moreover, the MIC in [7] turned out to be 2 µg/mL (≈ 4.71 µM); in [12] (setting [19]), 8 µg/mL (≈ 18.9 µM). Moreover, the ED50 is > 200 mg/kg in [3] and 37 mg/kg in assay [8]. Besides, the animals died result in assay [3] (Pseudomonas infection, s.c., at 200 mg/kg) is recorded as “all animals died”.

Consider `Cc1ncc(CNc2ncc(NC(=O)N[C@@H](C(=O)N[C@@H]3C(=O)N4C(C(=O)O)=C(CSc5nnnn5C)CS[C@H]34)c3ccc(O)cc3)c(O)n2)cn1` [P], for which the minimal inhibitory concentration (MIC) in assay [1] (setting [13]) came out at 0.5 µg/mL (≈ 0.68 µM); in assay [2] (setting [14]) it was 0.25 µg/mL (≈ 0.34 µM); in [9], 4 µg/mL (≈ 5.44 µM); in assay [4] (setting [15]), 0.25 µg/mL (≈ 0.34 µM); in assay [5] (setting [16]), 0.5 µg/mL (≈ 0.68 µM); in [10] (setting [17]) it was 0.06 µg/mL (≈ 0.0815 µM). Also, the MIC in assay [11] came to 4 µg/mL (≈ 5.44 µM); in assay [6] (setting [18]), 0.25 µg/mL (≈ 0.34 µM); in assay [7], 0.25 µg/mL (≈ 0.34 µM); in assay [12] (setting [19]), 0.12 µg/mL (≈ 0.163 µM).

For `Cn1nnnc1SCC1=C(C(=O)O)N2C(=O)[C@@H](NC(=O)[C@H](NC(=O)Nc3cnc(NCc4ccco4)nc3O)c3ccc(O)cc3)[C@H]2SC1` [J], the MIC in [1] (setting [13]) amounted to 0.5 µg/mL (≈ 0.704 µM); in [2] (setting [14]), 0.5 µg/mL (≈ 0.704 µM); in assay [9] it was 8 µg/mL (≈ 11.3 µM); in assay [4] (setting [15]), 0.25 µg/mL (≈ 0.352 µM); in [5] (setting [16]) it was 0.5 µg/mL (≈ 0.704 µM); in [10] (setting [17]), 0.12 µg/mL (≈ 0.169 µM). The MIC in assay [11] was determined as 4 µg/mL (≈ 5.64 µM); in assay [6] (setting [18]), 0.5 µg/mL (≈ 0.704 µM); in assay [7] it was 0.5 µg/mL (≈ 0.704 µM); in assay [12] (setting [19]), 0.25 µg/mL (≈ 0.352 µM). The ED50 turned out to be 6.3 mg/kg in assay [3] and 0.3 mg/kg in assay [8].
